Laboratory results published in BindingDB's records for doi:10.1016/j.bmcl.2008.12.075 (Methylgene, 2009).

molecular target: T1, Histone-arginine methyltransferase CARM1 (Mus musculus, UniProt Q9WVG6); test: Inhibition of CARM-1 Enzymatic Activity; details: pH 9; 22 °C
T1 sequence (Q9WVG6 whole entry): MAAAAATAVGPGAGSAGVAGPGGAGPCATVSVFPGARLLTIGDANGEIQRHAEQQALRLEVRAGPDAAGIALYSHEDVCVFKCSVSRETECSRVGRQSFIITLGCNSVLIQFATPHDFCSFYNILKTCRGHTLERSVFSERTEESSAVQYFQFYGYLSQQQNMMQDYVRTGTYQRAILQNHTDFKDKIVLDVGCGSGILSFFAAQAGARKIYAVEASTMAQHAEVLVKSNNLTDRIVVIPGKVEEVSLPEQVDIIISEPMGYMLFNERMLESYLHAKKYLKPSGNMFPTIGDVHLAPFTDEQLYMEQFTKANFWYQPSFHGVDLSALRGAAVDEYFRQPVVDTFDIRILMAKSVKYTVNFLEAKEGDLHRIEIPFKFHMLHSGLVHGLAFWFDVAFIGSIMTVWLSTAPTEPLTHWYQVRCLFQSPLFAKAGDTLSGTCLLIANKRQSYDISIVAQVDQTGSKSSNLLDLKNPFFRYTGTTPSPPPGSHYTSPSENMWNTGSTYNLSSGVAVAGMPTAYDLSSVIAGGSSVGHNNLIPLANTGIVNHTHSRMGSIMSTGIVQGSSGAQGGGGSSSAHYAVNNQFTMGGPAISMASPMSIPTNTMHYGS
Protocol: Histone H3 is used as the substrate for CARM-1 enzyme, and the methylation is monitored using tritiated S-Adenosyl-Methionine (SAM) as a methyl donor. The enzyme mixture containing test compound is left to pre-incubate for 10 minutes, followed by the addition of Histone H3/[3H] SAM mixture. After incubation, the mixture is spotted onto P30 Filtermat paper. The incorporated radioactivity is read using a Wallac Microbeta counter. The data is analyzed to generate IC50 values.

| IC50 [µM] | Compound |
| --- | --- |
| 0.08 | C[C@H](N)C(=O)NCc1cccc(-n2nc(C(F)(F)F)cc2C(=O)NCc2ccccc2)c1 |
| > 10 | COc1ccccc1CNC(=O)c1cc(C(F)(F)F)nn1-c1cccc2c1CN(C(=O)[C@H](C)N)C2 [1-{2-[(2S)-2-aminopropanoyl]-2,3-dihydro-1H-isoindol-4-yl}-N-[(2-methoxyphenyl)methyl]-3-(trifluoromethyl)-1H-pyrazole-5-carboxamide] |
| 3.35 | C[C@H](N)C(=O)NCc1cc(-n2nc(C(F)(F)F)cc2C(=O)NCc2ccccn2)cs1 [1-(5-{[(2S)-2-aminopropanamido]methyl}thiophen-3-yl)-N-(pyridin-2-ylmethyl)-3-(trifluoromethyl)-1H-pyrazole-5-carboxamide] |
